Experimental data reported in patent publication US20070014825A1, “Ant bait attractive to many species of ants and useful in their rapid control” (priority 2005, published 2007).

How the values were obtained:
ants = experiment: Repulsion or loss of attractant activity of bait additives to ants; assay type: in vivo; details: trace amounts added to ant baits
Carpenter Ant = experiment: Liquid carpenter ant bait placed on ant trail: distance traveled after ingestion and kill; assay type: in vivo, Carpenter Ant (Genus Componatus)
Description: The above liquid carpenter ant bait was not formulated with a fragrance or dye, although both these additives may can be added. Soak the liquid ant bait in an absorbent wick, cotton ball or tissue and place on ant trail.
A carpenter ant ingested bait 7a for approximately 20 minutes, walked approximately 1.5-2 feet and was killed. Another carpenter ant ingested bait 7b for approximately 20 minutes, walked 20-30 feet, disappearing in the brush.
The ant baits of the above examples were tested in their natural environment where the particular ants were found. The baits were distributed in small amounts in the areas where the ants were seen to be active. All of the baits were readily accepted by the various ants. Gradually in all of the examples the numbers of ants in the treated areas was reduced to the point that none could be found.

Structure (SMILES): O=c1[nH]sc2ccccc12 [1,2-benzisothiazolin-3-one]
- Loss in attractant activity of ant bait (ants): Little or no loss in attractant activity

Structure (SMILES): COP(=O)(NC(C)=O)SC (stereo not drawn) [acephate]
- Time after Bait Ingestion at which ant disappeared (kill not observed) (Carpenter Ant; Level of toxicant in Bait 0.2%): after 35-40 minutes
- Time of Ingestion of Bait by Ant (Carpenter Ant; Level of toxicant in Bait 0.2%): ˜20 minutes
- Distance Traveled (Carpenter Ant; Level of toxicant in Bait 0.2%, ant disappeared): 20-30 feet
- Nest Killed (Carpenter Ant; Level of toxicant in Bait 0.2%, entire nest killed): Yes
- Distance Traveled (Carpenter Ant; Level of toxicant in Bait 1.2%): 1.5-2 feet
- Nest Killed (Carpenter Ant; Level of toxicant in Bait 1.2%): No
- Time Ant Killed after Bait Ingestion (Carpenter Ant; Level of toxicant in Bait 1.2%): ˜22-23 minutes
- Time of Ingestion of Bait by Ant (Carpenter Ant; Level of toxicant in Bait 1.2%): ˜20 minutes
